Data published in ChEMBL document CHEMBL3885881, “DrugMatrix”.

Species on record: Rattus norvegicus
Test: DrugMatrix - Regimen: Daily Repeat
Type: toxicity, organism-based, Sprague-Dawley
Parameters: regimen Daily Repeat, gender Male, age 6-8 weeks
Conditions: in vivo, iv, vehicle 100 % SALINE; for ABSOLUTE BASOPHIL / ABSOLUTE EOSINOPHIL / ABSOLUTE LYMPHOCYTE / ABSOLUTE MONOCYTE / ABSOLUTE SEGMENTED NEUTROPHIL / BASOPHIL / EOSINOPHIL / ERYTHROCYTE COUNT / HEMATOCRIT / HEMOGLOBIN / LEUKOCYTE COUNT / LYMPHOCYTE / MEAN CORPUSCULAR HEMOGLOBIN / MEAN CORPUSCULAR HEMOGLOBIN CONCENTRATION / MEAN CORPUSCULAR VOLUME / MONOCYTE / NEUTROPHIL / NUCLEATED RED BLOOD CELLS / PLATELET COUNT: tissue Blood; for ALANINE AMINOTRANSFERASE / ALBUMIN / ALKALINE PHOSPHATASE / ASPARTATE AMINOTRANSFERASE / BLOOD UREA NITROGEN / CARBON DIOXIDE / CHOLESTEROL / CREATINE PHOSPHOKINASE / CREATININE / GLUCOSE / LACTATE DEHYDROGENASE / LIPASE / PHOSPHORUS / POTASSIUM / SODIUM / TOTAL BILIRUBIN / TOTAL PROTEIN / URIC ACID: tissue Plasma
[1] = 18 mg/kg, 120 h, dose level High, time 5 day
[2] = […], 72 h, dose 7.5 mg/Kg, dose level Low, time 3 day
[3] = […], 120 h, dose 7.5 mg/Kg, dose level Low, time 5 day

N=C(N)c1ccc(OCCCCCOc2ccc(C(=N)N)cc2)cc1 [PENTAMIDINE]
ABSOLUTE BASOPHIL [1]: 0 CELLS/uL
ABSOLUTE EOSINOPHIL [1]: 0 CELLS/uL
ABSOLUTE LYMPHOCYTE [1]: 15017 CELLS/uL
ABSOLUTE MONOCYTE [1]: 444.33 CELLS/uL
ABSOLUTE SEGMENTED NEUTROPHIL [1]: 972 CELLS/uL
BASOPHIL [1]: 0%
EOSINOPHIL [1]: 0%
ERYTHROCYTE COUNT [1]: 6.15 x10E6/uL
HEMATOCRIT [1]: 37.9%
HEMOGLOBIN [1]: 14.2 G/DL
LEUKOCYTE COUNT [1]: 16.43 x10E3/uL
LYMPHOCYTE [1]: 91.33%
MEAN CORPUSCULAR HEMOGLOBIN [1]: 23.07 pg
MEAN CORPUSCULAR HEMOGLOBIN CONCENTRATION [1]: 37.5 G/DL
MEAN CORPUSCULAR VOLUME [1]: 61.53 fL
MONOCYTE [1]: 2.67%
NEUTROPHIL [1]: 6%
NUCLEATED RED BLOOD CELLS [1]: 0 /100WBC
PLATELET COUNT [1]: 1455 x10E3/uL
ALANINE AMINOTRANSFERASE [1]: 44.33 u/L
ALBUMIN [1]: 4.3 G/DL
ALKALINE PHOSPHATASE [1]: 288.33 u/L
ASPARTATE AMINOTRANSFERASE [1]: 71 u/L
BLOOD UREA NITROGEN [1]: 13.67 mg/dL
CARBON DIOXIDE [1]: 26.67 mmol/L
CHOLESTEROL [1]: 57 mg/dL
CREATINE PHOSPHOKINASE [1]: 246.67 u/L
CREATININE [1]: 0.22 mg/dL
GLUCOSE [1]: 166.33 mg/dL
LACTATE DEHYDROGENASE [1]: 175 u/L
LIPASE [1]: 8.67 u/L
PHOSPHORUS [1]: 11.6 mg/dL
POTASSIUM [1]: 5.78 MEQ/L
SODIUM [1]: 146.7 MEQ/L
TOTAL BILIRUBIN [1]: 0.2 mg/dL
TOTAL PROTEIN [1]: 6.13 G/DL
URIC ACID [1]: 1.93 mg/dL
ABSOLUTE BASOPHIL [2]: 0 CELLS/uL
ABSOLUTE EOSINOPHIL [2]: 0 CELLS/uL
ABSOLUTE LYMPHOCYTE [2]: 12540 CELLS/uL
ABSOLUTE MONOCYTE [2]: 234 CELLS/uL
ABSOLUTE SEGMENTED NEUTROPHIL [2]: 1759.33 CELLS/uL
BASOPHIL [2]: 0%
EOSINOPHIL [2]: 0%
ERYTHROCYTE COUNT [2]: 5.88 x10E6/uL
HEMATOCRIT [2]: 37.37%
HEMOGLOBIN [2]: 14.03 G/DL
LEUKOCYTE COUNT [2]: 14.53 x10E3/uL
LYMPHOCYTE [2]: 86.67%
MEAN CORPUSCULAR HEMOGLOBIN [2]: 23.9 pg
MEAN CORPUSCULAR HEMOGLOBIN CONCENTRATION [2]: 37.53 G/DL
MEAN CORPUSCULAR VOLUME [2]: 63.63 fL
MONOCYTE [2]: 1.67%
NEUTROPHIL [2]: 11.67%
NUCLEATED RED BLOOD CELLS [2]: 0 /100WBC
PLATELET COUNT [2]: 1241.67 x10E3/uL
ALANINE AMINOTRANSFERASE [2]: 54.33 u/L
ALBUMIN [2]: 4.63 G/DL
ALKALINE PHOSPHATASE [2]: 393 u/L
ASPARTATE AMINOTRANSFERASE [2]: 80.67 u/L
BLOOD UREA NITROGEN [2]: 15.33 mg/dL
CARBON DIOXIDE [2]: 24.67 mmol/L
CHOLESTEROL [2]: 69.67 mg/dL
CREATINE PHOSPHOKINASE [2]: 265 u/L
CREATININE [2]: 0.17 mg/dL
GLUCOSE [2]: 136.67 mg/dL
LACTATE DEHYDROGENASE [2]: 184 u/L
LIPASE [2]: 9 u/L
PHOSPHORUS [2]: 10.97 mg/dL
POTASSIUM [2]: 6.64 MEQ/L
SODIUM [2]: 143.8 MEQ/L
TOTAL BILIRUBIN [2]: 0.23 mg/dL
TOTAL PROTEIN [2]: 5.83 G/DL
URIC ACID [2]: 1.97 mg/dL
ABSOLUTE BASOPHIL [3]: 0 CELLS/uL
ABSOLUTE EOSINOPHIL [3]: 183 CELLS/uL
ABSOLUTE LYMPHOCYTE [3]: 14369.67 CELLS/uL
ABSOLUTE MONOCYTE [3]: 485 CELLS/uL
ABSOLUTE SEGMENTED NEUTROPHIL [3]: 1795.67 CELLS/uL
BASOPHIL [3]: 0%
EOSINOPHIL [3]: 1%
ERYTHROCYTE COUNT [3]: 5.98 x10E6/uL
HEMATOCRIT [3]: 38.47%
HEMOGLOBIN [3]: 14.17 G/DL
LEUKOCYTE COUNT [3]: 16.83 x10E3/uL
LYMPHOCYTE [3]: 85%
MEAN CORPUSCULAR HEMOGLOBIN [3]: 23.7 pg
MEAN CORPUSCULAR HEMOGLOBIN CONCENTRATION [3]: 36.83 G/DL
MEAN CORPUSCULAR VOLUME [3]: 64.37 fL
MONOCYTE [3]: 3%
NEUTROPHIL [3]: 11%
NUCLEATED RED BLOOD CELLS [3]: 0 /100WBC
PLATELET COUNT [3]: 1425 x10E3/uL
ALANINE AMINOTRANSFERASE [3]: 42.67 u/L
ALBUMIN [3]: 4.57 G/DL
ALKALINE PHOSPHATASE [3]: 364.67 u/L
ASPARTATE AMINOTRANSFERASE [3]: 84.33 u/L
BLOOD UREA NITROGEN [3]: 18.67 mg/dL
CARBON DIOXIDE [3]: 27.67 mmol/L
CHOLESTEROL [3]: 76.67 mg/dL
CREATINE PHOSPHOKINASE [3]: 325 u/L
CREATININE [3]: 0.23 mg/dL
GLUCOSE [3]: 145 mg/dL
LACTATE DEHYDROGENASE [3]: 461.33 u/L
LIPASE [3]: 9 u/L
PHOSPHORUS [3]: 11.17 mg/dL
POTASSIUM [3]: 6.1 MEQ/L
SODIUM [3]: 143.03 MEQ/L
TOTAL BILIRUBIN [3]: 0.23 mg/dL
TOTAL PROTEIN [3]: 6.3 G/DL
URIC ACID [3]: 1.33 mg/dL
